PMC4578337, “New depsidones and isoindolinones from the mangrove endophytic fungus Meyerozyma guilliermondii (HZ-Y2) isolated from the South China Sea” (Beilstein Journal of Organic Chemistry, 2015)

How the values were obtained:
α-glucosidase [1] = target: T1, α-glucosidase (Saccharomyces cerevisiae, UniProt P53341); experiment: α-glucosidase inhibitory activity assay; type: biochemical; conditions: qualitative statement
Description: (§1) Biological assays. The assays for α-glucosidase and MptpB inhibition inhibitory activities were carried out as described previously.

α-glucosidase [2] = target: T1, α-glucosidase; experiment: kinetic analysis of the inhibition of α-glucosidase; type: biochemical; conditions: Figure 4
Description: as §1

T1 sequence (P53341 whole entry): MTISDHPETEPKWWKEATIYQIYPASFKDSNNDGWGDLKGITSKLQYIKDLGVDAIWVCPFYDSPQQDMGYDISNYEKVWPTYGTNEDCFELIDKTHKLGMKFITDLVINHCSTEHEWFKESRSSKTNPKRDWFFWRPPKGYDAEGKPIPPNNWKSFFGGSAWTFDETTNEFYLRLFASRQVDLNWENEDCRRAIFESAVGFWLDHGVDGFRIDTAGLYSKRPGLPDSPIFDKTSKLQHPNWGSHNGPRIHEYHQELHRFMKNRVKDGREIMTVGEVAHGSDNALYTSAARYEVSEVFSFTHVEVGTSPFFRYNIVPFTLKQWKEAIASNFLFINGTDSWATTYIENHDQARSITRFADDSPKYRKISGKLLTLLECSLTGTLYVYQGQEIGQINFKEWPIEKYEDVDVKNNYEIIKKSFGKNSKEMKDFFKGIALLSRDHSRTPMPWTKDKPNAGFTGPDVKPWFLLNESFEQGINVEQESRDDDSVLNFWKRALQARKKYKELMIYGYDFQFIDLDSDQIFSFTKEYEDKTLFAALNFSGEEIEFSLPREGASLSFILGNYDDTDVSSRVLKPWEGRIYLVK

O=C1NCc2c(O)cc(O)cc21 [Compound 8, 4,6-dihydroxy-2,3-dihydro-1H-isoindol-1-one]
α-glucosidase inhibitory activity (in words) (α-glucosidase [1]): moderate to weak activities

O=C1NC(=O)c2c(O)cc(O)cc21 [Compound 10, 4,6-dihydroxy-1H-isoindole-1,3(2H)-dione]
α-glucosidase inhibitory activity (in words) (α-glucosidase [1]): moderate to weak activities

Cc1cc(O)cc2c1Oc1c(CO)c(O)cc(C)c1C(=O)O2 [Compound 6, botryorhodine D]
type of α-glucosidase inhibition (kinetic studies) (α-glucosidase [2]): noncompetitive inhibitors

O=C(O)CCCCN1Cc2c(O)cc(O)cc2C1=O [Compound 7, Meyeroguilline A]
α-glucosidase inhibitory activity (in words) (α-glucosidase [1]): promising α-glucosidase inhibitory activity

Cc1cc(O)c(C)c2c1Oc1c(O)c(O)cc(C)c1C(=O)O2 [Compound 2, Botryorhodine F]
type of α-glucosidase inhibition (kinetic studies) (α-glucosidase [2]): noncompetitive inhibitors
